Experiments:
[1] = tested on: human breast adenocarcinoma MDA-MB-231 cell line; experiment: Cytotoxicity: cell growth inhibition in cultures, viable cells counted by trypan blue exclusion; assay type: cell-based; conditions: for inhibition at 0.04 µM / inhibition at 1 µM / inhibition at 0.1 µM / inhibition at 0.01 µM / inhibition at 0.001 µM / inhibition at 0.0001 µM / inhibition at 10 pM: Homo sapiens; for Cell growth inhibition % Formulation: compound/paclitaxel formulations in saline; for Cell growth inhibition % OF W/SAB / Cell growth inhibition % OF SAB/W: dried compound/paclitaxel mixed-micellar system (OF); for Cell growth inhibition % OF W/SAB: freeze-dried as water solution, reconstituted with 0.05 M sodium acetate buffer; for Cell growth inhibition % OF SAB/W: freeze-dried in 0.05 M sodium acetate buffer, reconstituted with water
Procedure: The cell line was propagated by cultivation in Nunclon 25 cm^2 flasks (Nunc A/S, Denmark) in Minimum Essential Medium Eagle (MEM), containing antibiotics and supplemented with 10% (v/v) fetal bovine serum (FBS) (Sigma, St. Louis, Mo., USA). The cultures were maintained in growth medium at 37° C. in a humidified atmosphere, 95% air and 5% CO2.
A suspension of tumour cells (60×10^3 cells/mL) was prepared in MEM with 5% FBS and antibiotics. Cell suspension (200 μL) was seeded in wells of Nunclon 96-microwell plates (Nunc A/S, Denmark) at a density of 12×10^3 cell/well. The solutions of the drugs to be tested were added to the cultures on day 0 or day 1 in volumes of 2 μL. In all cases the cells were incubated for 3 days.
At the end of the incubation period, adherent cells were detached by trypsinization and the number of viable cells was counted using trypan blue dye exclusion test and a hemocytometer.
All experiments were performed at least twice and the cells counts were done in triplicate for each drug concentration. Each control and test series consisted of 6-8 cultures. The results are expressed as mean cell number ±SD and the differences between control and test series were evaluated by means of Student's t-test. The cytotoxicity of each tested drug was evaluated by the extent of cell growth inhibition. The Cell growth inhibition was evaluated as follows:
Cell growth inhibition, %=- - - ×100

[2] = Solubility of compounds and formulations; assay type: physicochemical; conditions: for solubility in solvents: sodium salts
Procedure: The obtained solution can be stored for at least three months at low temperatures, without noticeable change in the properties of compound (I-VI). Moreover, the formulation retains its cytotoxic effects during prolonged storage. Before use, the solution is evaporated in vacuo to yield a waxy solid which is dissolved in saline or other commonly used vehicle for intravenous infusion to a patient. […] An ethanol solution is prepared of one of N-(all-trans-Retinoyl)-L-cysteic acid (I), N-(13-cis-Retinoyl)-L-cysteic acid (11), N-(all-trans-Retinoyl)-L-homocysteic acid (III), N-(13-cis-Retinoyl)-L-homocysteic acid (IV), N-(all-trans-Retinoyl)-L-cysteinesulfinic acid (V), or N-(13-cis-Retinoyl)-L-cysteinesulfinic acid (VI). The obtained solution is evaporated in vacuo to give waxy solid, whereupon Taxol® is added, dissolving the waxy solid. […]

[3] = MDA-MB-231, sodium salt in saline, final 4 × 10^−8 mol/L, day 1, three days
[4] = MDA-MB-231, sodium salt in saline, final 10^−6 mol/L (top of range 10^−11 M to 10^−6 M), day 1, three days
[5] = MDA-MB-231, sodium salt in saline, final 10^−7 mol/L, day 1, three days
[6] = MDA-MB-231, sodium salt in saline, final 10^−8 mol/L, day 1, three days
[7] = MDA-MB-231, sodium salt in saline, final 10^−9 mol/L, day 1, three days
[8] = MDA-MB-231, sodium salt in saline, final 10^−10 mol/L, day 1, three days
[9] = MDA-MB-231, sodium salt of the compound dissolved in saline (1 mg/ml), final concentration 10^−11 mol/L, day 1, three days
[10] = initial saline solution 0.005 mg/mL, final 40 nM in cultures, added day 1, three days of cultivation
[11] = initial saline solution 0.05 mg/mL, final 40 nM, day 1, three days
[12] = initial saline solution 0.5 mg/mL, final 40 nM, day 1, three days
[13] = initial saline solution 1.0 mg/mL, final 40 nM, day 1, three days
[14] = initial saline solution 5.0 mg/mL, final 40 nM, day 1, three days
[15] = sodium salt in saline, final 4 × 10^−8 mol/L, day 1, three days
[16] = sodium salt in saline, final 10^−6 mol/L (top of range 10^−11 M to 10^−6 M), day 1, three days
[17] = sodium salt in saline, final 10^−6 mol/L, day 1, three days
[18] = sodium salt in saline, final 10^−7 mol/L, day 1, three days
[19] = sodium salt in saline, final 10^−8 mol/L, day 1, three days
[20] = sodium salt in saline, final 10^−9 mol/L, day 1, three days
[21] = sodium salt in saline, final 10^−10 mol/L, day 1, three days
[22] = sodium salt of the compound dissolved in saline (1 mg/ml), final concentration 10^−11 mol/L, day 1, three days

SMILES: CC1=C(/C=C/C(C)=C/C=C/C(C)=C/C(=O)N[C@@H](CS(=O)(=O)O)C(=O)O)C(C)(C)CCC1 [Compound I, N-(all-trans-Retinoyl)-L-cysteic acid]
- inhibition at 0.04 µM ([1]; MDA-MB-231, compound alone 4 × 10^−8 mol/L (40 nM), added day 0, three days): 39.6%
- inhibition at 0.04 µM ([1]; MDA-MB-231, dry substance, stock 1 mg/ml in saline, final 4 × 10^−8 mol/L, day 1, three days): 38.1%
- inhibition at 1 µM ([1]; MDA-MB-231, dry substance, stock 1 mg/ml in saline, final 10^−6 mol/L, day 1, three days): 42.1%
- inhibition at 0.1 µM ([1]; MDA-MB-231, dry substance, stock 1 mg/ml in saline, final 10^−7 mol/L, day 1, three days): 39.1%
- inhibition at 0.01 µM ([1]; MDA-MB-231, dry substance, stock 1 mg/ml in saline, final 10^−8 mol/L, day 1, three days): 29.9%
- inhibition at 0.001 µM ([1]; MDA-MB-231, dry substance, stock 1 mg/ml in saline, final 10^−9 mol/L, day 1, three days): 19.8%
- inhibition at 0.0001 µM ([1]; MDA-MB-231, dry substance, stock 1 mg/ml in saline, final 10^−10 mol/L, day 1, three days): 18.6%
- inhibition at 10 pM ([1]; MDA-MB-231, dry substance, stock 1 mg/ml in saline, final concentration 10^−11 mol/L, day 1, three days): 27.3%
- inhibition at 0.04 µM [1, 3]: 46.8%
- inhibition at 1 µM [1, 4]: 49.7%
- inhibition at 0.1 µM [1, 5]: 48%
- inhibition at 0.01 µM [1, 6]: 46.2%
- inhibition at 0.001 µM [1, 7]: 39.7%
- inhibition at 0.0001 µM [1, 8]: 36.5%
- inhibition at 10 pM [1, 9]: 28.6%
- cell growth inhibition ([1]; compound alone 4 × 10^−8 mol/L (40 nM), added day 0, three days, 0.04 µM): ~40%
- number of living cells ([1]; compound alone 4 × 10^−8 mol/L, added day 0, three days): 16.3 ± 2.50 × 10^3
- Cell growth inhibition % Formulation [1]: close to 75%
- Cell growth inhibition % OF W/SAB [1]: close to 71%
- Cell growth inhibition % OF SAB/W [1]: close to 72%
- number of living cells ([1]; dry substance, stock 1 mg/ml in saline, final 4 × 10^−8 mol/L, day 1, three days): 30.9 ± 1.62 × 10^3
- number of living cells ([1]; dry substance, stock 1 mg/ml in saline, final 10^−6 mol/L, day 1, three days): 28.9 ± 2.68 × 10^3
- number of living cells ([1]; dry substance, stock 1 mg/ml in saline, final 10^−7 mol/L, day 1, three days): 30.4 ± 1.83 × 10^3
- number of living cells ([1]; dry substance, stock 1 mg/ml in saline, final 10^−8 mol/L, day 1, three days): 35.0 ± 4.38 × 10^3
- number of living cells ([1]; dry substance, stock 1 mg/ml in saline, final 10^−9 mol/L, day 1, three days): 40.0 ± 2.31 × 10^3
- number of living cells ([1]; dry substance, stock 1 mg/ml in saline, final 10^−10 mol/L, day 1, three days): 40.6 ± 1.69 × 10^3
- number of living cells ([1]; dry substance, stock 1 mg/ml in saline, final concentration 10^−11 mol/L, day 1, three days): 36.3 ± 3.82 × 10^3
- cell growth inhibition [1, 10]: 33.3%
- number of living cells [1, 10]: 33.3 ± 2.55 × 10^3
- cell growth inhibition [1, 11]: 32.1%
- number of living cells [1, 11]: 33.9 ± 2.78 × 10^3
- cell growth inhibition [1, 12]: 31.5%
- number of living cells [1, 12]: 34.2 ± 5.09 × 10^3
- cell growth inhibition [1, 13]: 38.3%
- number of living cells [1, 13]: 30.8 ± 3.53 × 10^3
- cell growth inhibition [1, 14]: 27.7%
- number of living cells [1, 14]: 36.1 ± 4.10 × 10^3
- number of living cells [1, 15]: 31.2 ± 1.72 × 10^3
- cell growth inhibition [1, 16]: ~50%
- number of living cells [1, 17]: 29.5 ± 1.36 × 10^3
- number of living cells [1, 18]: 30.5 ± 0.89 × 10^3
- number of living cells [1, 19]: 31.6 ± 1.69 × 10^3
- number of living cells [1, 20]: 35.4 ± 2.23 × 10^3
- number of living cells [1, 21]: 37.3 ± 2.84 × 10^3
- number of living cells [1, 22]: 41.9 ± 2.17 × 10^3
- solubility in the commercially available Taxol® preparation [2]: excellent solubility
- solubility in solvents [2]: soluble only in mixtures containing water

SMILES: CC1=C(/C=C/C(C)=C/C=C/C(C)=C/C(=O)N[C@@H](CS(=O)O)C(=O)O)C(C)(C)CCC1 [Compound V, N-(all-trans-Retinoyl)-L-cysteinesulfinic acid]
- inhibition at 0.04 µM [1, 3]: 27.1%
- inhibition at 1 µM [1, 4]: 29.8%
- inhibition at 0.1 µM [1, 5]: 27.6%
- inhibition at 0.01 µM [1, 6]: 24.3%
- inhibition at 0.001 µM [1, 7]: 16.2%
- inhibition at 0.0001 µM [1, 8]: 14.7%
- inhibition at 10 pM [1, 9]: 13.3%
- Cell growth inhibition % Formulation [1]: close to 55%
- Cell growth inhibition % OF W/SAB [1]: close to 56%
- Cell growth inhibition % OF SAB/W [1]: close to 58%
- number of living cells [1, 15]: 39.6 ± 1.75 × 10^3
- cell growth inhibition [1, 16]: ~30%
- number of living cells [1, 17]: 38.1 ± 1.86 × 10^3
- number of living cells [1, 18]: 39.3 ± 1.22 × 10^3
- number of living cells [1, 19]: 41.1 ± 2.34 × 10^3
- number of living cells [1, 20]: 45.5 ± 2.80 × 10^3
- number of living cells [1, 21]: 46.3 ± 2.49 × 10^3
- number of living cells [1, 22]: 47.1 ± 2.41 × 10^3
- solubility in the commercially available Taxol® preparation [2]: excellent solubility
- solubility in solvents [2]: soluble only in mixtures containing water
